Assays:
Format in all cases: biochemical
HER2 = HER2 (Homo sapiens, UniProt P04626); assay: Kinase panel inhibition; conditions: @ 10 μM inhibitor; read-out: HER2 kinase inh.
Procedure: (§1) Percentage Inhibition of the Kinase at 10 μM Concentration of the Inhibitor
(§2) Paul W. Manley, Pascal Furet, Guido Bold, Josef Brüggen, Jürgen Mestan, Thomas Meyer, Christian R. Schnell, and Jeanette Wood; Anthranilic Acid Amides: A Novel Class of Antiangiogenic VEGF Receptor Kinase Inhibitors J. Med. Chem. 2002, 45, 5687-5693. Wan, Yongqin; Hur, Wooyoung; Cho, Charles Y.; Liu, Yi; Adrian, Francisco J.; Lozach, Olivier; Bach, Stephane; Mayer, Thomas; Fabbro, Doriano; Meijer, Laurent; Gray, Nathanael S; Synthesis and Target Identification of Hymenialdisine Analogs Chemistry & Biology 2004, 11(2), 247-259.

MET = MET (Homo sapiens, UniProt P08581); assay: Kinase panel inhibition; conditions: @ 10 μM inhibitor; read-out: MET kinase inh.
Procedure: as §1, §2

FGFR = assay: Kinase panel inhibition; conditions: @ 10 μM inhibitor
Procedure: as §1, §2

PDK1 = target: T1, PDK1 (Homo sapiens, UniProt O15530); assay: Kinase panel inhibition; conditions: @ 10 μM inhibitor; read-out: PDK1 kinase inh.
T1 sequence (O15530 1-556): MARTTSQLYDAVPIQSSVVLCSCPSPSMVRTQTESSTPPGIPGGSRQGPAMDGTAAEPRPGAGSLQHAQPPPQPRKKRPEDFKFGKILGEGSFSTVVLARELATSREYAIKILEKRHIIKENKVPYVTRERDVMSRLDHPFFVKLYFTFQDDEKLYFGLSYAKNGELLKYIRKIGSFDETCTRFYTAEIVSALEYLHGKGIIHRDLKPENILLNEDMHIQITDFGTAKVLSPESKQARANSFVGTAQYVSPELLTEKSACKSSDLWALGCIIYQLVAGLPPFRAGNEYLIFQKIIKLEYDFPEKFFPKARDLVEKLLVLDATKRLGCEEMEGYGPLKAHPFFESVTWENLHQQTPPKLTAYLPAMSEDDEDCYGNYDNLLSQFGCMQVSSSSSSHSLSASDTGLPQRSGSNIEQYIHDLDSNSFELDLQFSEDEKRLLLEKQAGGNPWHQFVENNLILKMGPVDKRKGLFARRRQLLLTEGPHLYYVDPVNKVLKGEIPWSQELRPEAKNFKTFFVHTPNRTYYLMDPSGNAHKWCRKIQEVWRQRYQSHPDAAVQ
Procedure: as §1, §2

ABL = ABL (Homo sapiens, UniProt P00519); assay: Kinase panel inhibition; conditions: @ 10 μM inhibitor; read-out: ABL kinase inh.
Procedure: as §1, §2

Flt-1 = Flt-1 (Homo sapiens, UniProt P17948); assay: Kinase panel inhibition; conditions: @ 10 μM inhibitor; read-out: Flt-1 kinase inh.
Procedure: as §1, §2

Tek = Tek (Homo sapiens, UniProt Q02763); assay: Kinase panel inhibition; conditions: @ 10 μM inhibitor; read-out: Tek kinase inh.
Procedure: as §1, §2

HER1 = HER1 (Homo sapiens, UniProt P00533); assay: Kinase panel inhibition; conditions: @ 10 μM inhibitor; read-out: HER1 kinase inh.
Procedure: as §1, §2

PKB = PKB (Homo sapiens, UniProt P31749); assay: Kinase panel inhibition; conditions: @ 10 μM inhibitor; read-out: PKB kinase inh.
Procedure: as §1, §2

KIT = KIT (Homo sapiens, UniProt P10721); assay: Kinase panel inhibition; conditions: @ 10 μM inhibitor; read-out: KIT kinase inh.
Procedure: as §1, §2

Flt-4 = Flt-4 (Homo sapiens, UniProt P35916); assay: Kinase panel inhibition; conditions: @ 10 μM inhibitor; read-out: Flt-4 kinase inh.
Procedure: as §1, §2

KDR = KDR (Homo sapiens, UniProt P35968); assay: Kinase panel inhibition; conditions: @ 10 μM inhibitor; read-out: KDR kinase inh.
Procedure: as §1, §2

IGF = IGF (Homo sapiens, UniProt P08069); assay: Kinase panel inhibition; conditions: @ 10 μM inhibitor; read-out: IGF kinase inh.
Procedure: as §1, §2

Raf-1 = Raf-1 (Homo sapiens, UniProt P04049); assay: Kinase panel inhibition; conditions: @ 10 μM inhibitor; read-out: Raf-1 kinase inh.
Procedure: as §1, §2

human topoisomerase II α = target: T2, human topoisomerase II α (Homo sapiens, UniProt P11388); assay: Topoisomerase II ATPase assay (Malachite Green); conditions: for inhibition at 10 µM: Percent inhibition @10 μM, Malachite Green assay, read-out: TOPO II inh. (inhibition of the TOPO ATPase activity)
T2 construct: purchased Professor Neil Osheroff (Vanderbilt University, Nashville, Tenn., USA)
Procedure: The inhibition of topoisomerase II is measured as follows:
Purified human topoisomerase II α was purchased from Professor Neil Osheroff (Vanderbilt University—Nashville, Tenn., USA).
The pUC18 (Stratagene) plasmid was introduced into Escherichia coil XL-1 (Stratagene) and purified with the HiSpeed Plasmid Purification kit (Qiagen) according to the manufacturer instructions. The purity of the DNA preparations was evaluated spectrophotometrically (OD260/OD280 ratio) and by agarose gel.
Preparation of the Malachite Green Reagent:
Three volumes of 0.045% malachite green (Sigma, catalog no. M-9636) diluted in water are mixed for 20 min at room temperature with one volume of 4.2% ammonium molybdate (Axon Lab AG, catalog no. A-2246) diluted in 4 N HCl. After mixing, Triton X-100 (Merck, catalog no. 1.12298) is added to a final concentration of 0.01%. The solution is filtered at 0.2 μm and stored at room temperature in the dark.
ATP hydrolysis was monitored by measuring the production of inorganic phosphate released during the catalytic cycle of topoisomerase II α with acidic molybdate and malachite green (Lanzetta,et al., An improved assay for nanomole amounts of inorganic phosphate, Anal Biochem 1979;100:95-7). Briefly, human topoisomerase II α is pre-incubated at 37° C. for 10 min in 90 μl reaction buffer (10 mM Tris.HCl pH 7.9, 175 mM KCl, 1 mM EDTA, 2 mM DTT, 5 mM MgCl2, 2.5% glycerol) in the presence of the indicated amount of pUC18 and DMSO in F96 maxisorp Nunclmmuno plates (Nunc). The reaction is initiated by the addition of 10 μl ATP at the indicated concentrations and is carried out for 30 min at 37° C. under constant agitation. The reaction is stopped by the addition of 200 μl molybdate/malachite green solution and the absorbance is immediately measured at 630 nm. The OD630 value is measured in the absence of protein for each ATP concentration (background) is subtracted from the value obtained in the presence of enzyme. A standard curve with inorganic phosphate is used to determine the amount of inorganic phosphate produced during the reaction and to ensure that the measures are in the linear range of the assay. The kinetic parameters of the enzymes are determined from measurements (at least in duplicate) of the initial rates at different ATP concentrations. The data are analyzed with GraFit (Erithacus Software).
The compounds are tested at 10 μM of concentration to determine their inhibition potential given % of inhibition of the TOPO II ATPase activity.
For the determination of the IC50, the procedure is repeated for different concentrations of test compound selected to cover the range of 0% to 100% inhibition and the concentration at which 50% inhibition of topoisomerase II occurs (IC50) for each compound is determined from concentration-inhibition curves in a conventional manner.

PKA = assay: Kinase panel inhibition; conditions: @ 10 μM inhibitor
Procedure: as §1, §2

KIT, sequence (P10721 26-976, species assumed): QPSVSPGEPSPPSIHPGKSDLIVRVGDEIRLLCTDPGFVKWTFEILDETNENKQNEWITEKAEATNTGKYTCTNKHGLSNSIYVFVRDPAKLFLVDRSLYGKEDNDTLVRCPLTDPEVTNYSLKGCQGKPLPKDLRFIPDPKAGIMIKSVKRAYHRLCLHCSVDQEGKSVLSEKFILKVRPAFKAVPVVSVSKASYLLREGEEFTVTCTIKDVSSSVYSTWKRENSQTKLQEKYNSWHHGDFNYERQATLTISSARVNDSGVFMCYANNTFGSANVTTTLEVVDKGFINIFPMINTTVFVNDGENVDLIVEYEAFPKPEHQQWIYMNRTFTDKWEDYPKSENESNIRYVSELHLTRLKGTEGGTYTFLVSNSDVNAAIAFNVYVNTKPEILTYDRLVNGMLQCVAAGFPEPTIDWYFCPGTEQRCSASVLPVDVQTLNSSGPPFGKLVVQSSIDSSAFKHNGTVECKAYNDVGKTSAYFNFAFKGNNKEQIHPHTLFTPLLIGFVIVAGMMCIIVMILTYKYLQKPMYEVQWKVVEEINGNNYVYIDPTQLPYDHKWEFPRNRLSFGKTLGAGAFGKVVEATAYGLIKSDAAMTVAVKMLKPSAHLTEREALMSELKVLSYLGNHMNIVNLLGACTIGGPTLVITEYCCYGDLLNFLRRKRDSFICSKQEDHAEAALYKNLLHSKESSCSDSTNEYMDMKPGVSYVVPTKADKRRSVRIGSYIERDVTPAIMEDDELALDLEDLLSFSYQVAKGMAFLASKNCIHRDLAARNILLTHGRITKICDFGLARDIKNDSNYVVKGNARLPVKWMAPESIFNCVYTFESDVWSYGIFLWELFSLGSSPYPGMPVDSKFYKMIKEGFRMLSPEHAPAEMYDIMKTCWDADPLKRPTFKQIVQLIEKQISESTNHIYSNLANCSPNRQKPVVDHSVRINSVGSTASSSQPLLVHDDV
PKB, sequence (P31749 whole entry, species assumed): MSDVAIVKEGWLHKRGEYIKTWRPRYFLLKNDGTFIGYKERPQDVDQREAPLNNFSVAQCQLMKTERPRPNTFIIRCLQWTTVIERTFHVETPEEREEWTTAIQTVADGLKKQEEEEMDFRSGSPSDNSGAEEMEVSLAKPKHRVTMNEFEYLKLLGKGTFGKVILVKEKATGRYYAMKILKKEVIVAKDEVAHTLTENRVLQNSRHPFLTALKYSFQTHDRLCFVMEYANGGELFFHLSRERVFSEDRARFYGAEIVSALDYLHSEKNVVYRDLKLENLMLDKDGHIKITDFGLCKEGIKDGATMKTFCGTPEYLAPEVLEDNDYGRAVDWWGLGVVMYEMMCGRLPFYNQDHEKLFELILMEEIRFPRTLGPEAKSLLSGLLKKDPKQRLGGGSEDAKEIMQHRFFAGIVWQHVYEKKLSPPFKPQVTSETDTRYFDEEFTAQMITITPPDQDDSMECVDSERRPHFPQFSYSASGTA
KDR, sequence (P35968 20-1356, species assumed): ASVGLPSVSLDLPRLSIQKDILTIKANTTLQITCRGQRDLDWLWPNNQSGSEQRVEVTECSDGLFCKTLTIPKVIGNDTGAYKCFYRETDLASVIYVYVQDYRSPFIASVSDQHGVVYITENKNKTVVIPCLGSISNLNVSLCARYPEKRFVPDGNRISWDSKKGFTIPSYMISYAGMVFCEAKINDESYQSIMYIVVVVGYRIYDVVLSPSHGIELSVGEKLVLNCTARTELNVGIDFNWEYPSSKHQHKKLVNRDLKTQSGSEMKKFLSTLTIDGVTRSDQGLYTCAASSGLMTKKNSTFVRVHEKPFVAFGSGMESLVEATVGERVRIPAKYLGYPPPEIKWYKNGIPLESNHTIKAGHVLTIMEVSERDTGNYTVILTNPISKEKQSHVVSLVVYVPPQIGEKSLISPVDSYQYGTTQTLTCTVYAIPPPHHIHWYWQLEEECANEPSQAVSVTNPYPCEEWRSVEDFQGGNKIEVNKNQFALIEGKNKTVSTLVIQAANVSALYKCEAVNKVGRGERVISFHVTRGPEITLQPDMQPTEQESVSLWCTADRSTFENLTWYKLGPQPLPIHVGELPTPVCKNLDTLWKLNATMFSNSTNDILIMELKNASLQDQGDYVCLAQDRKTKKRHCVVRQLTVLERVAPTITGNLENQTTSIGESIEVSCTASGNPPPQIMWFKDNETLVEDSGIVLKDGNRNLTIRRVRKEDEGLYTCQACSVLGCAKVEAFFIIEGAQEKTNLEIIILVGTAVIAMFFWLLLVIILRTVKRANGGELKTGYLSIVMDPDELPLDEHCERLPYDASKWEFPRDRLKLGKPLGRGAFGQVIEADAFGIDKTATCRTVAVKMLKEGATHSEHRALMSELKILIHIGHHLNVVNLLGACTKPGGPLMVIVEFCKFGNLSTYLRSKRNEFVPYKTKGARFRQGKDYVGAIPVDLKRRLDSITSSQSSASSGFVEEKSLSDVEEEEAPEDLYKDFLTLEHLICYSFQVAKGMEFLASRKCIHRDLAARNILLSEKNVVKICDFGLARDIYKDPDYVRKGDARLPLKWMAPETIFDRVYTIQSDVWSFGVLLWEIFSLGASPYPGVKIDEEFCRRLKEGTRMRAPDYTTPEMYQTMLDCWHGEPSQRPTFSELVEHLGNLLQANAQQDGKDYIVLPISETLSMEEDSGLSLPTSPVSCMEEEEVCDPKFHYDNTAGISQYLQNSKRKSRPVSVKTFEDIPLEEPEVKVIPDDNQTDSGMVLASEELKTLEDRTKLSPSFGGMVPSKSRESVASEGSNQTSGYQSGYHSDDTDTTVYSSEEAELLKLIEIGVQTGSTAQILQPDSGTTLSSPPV
T2 sequence (P11388 whole entry): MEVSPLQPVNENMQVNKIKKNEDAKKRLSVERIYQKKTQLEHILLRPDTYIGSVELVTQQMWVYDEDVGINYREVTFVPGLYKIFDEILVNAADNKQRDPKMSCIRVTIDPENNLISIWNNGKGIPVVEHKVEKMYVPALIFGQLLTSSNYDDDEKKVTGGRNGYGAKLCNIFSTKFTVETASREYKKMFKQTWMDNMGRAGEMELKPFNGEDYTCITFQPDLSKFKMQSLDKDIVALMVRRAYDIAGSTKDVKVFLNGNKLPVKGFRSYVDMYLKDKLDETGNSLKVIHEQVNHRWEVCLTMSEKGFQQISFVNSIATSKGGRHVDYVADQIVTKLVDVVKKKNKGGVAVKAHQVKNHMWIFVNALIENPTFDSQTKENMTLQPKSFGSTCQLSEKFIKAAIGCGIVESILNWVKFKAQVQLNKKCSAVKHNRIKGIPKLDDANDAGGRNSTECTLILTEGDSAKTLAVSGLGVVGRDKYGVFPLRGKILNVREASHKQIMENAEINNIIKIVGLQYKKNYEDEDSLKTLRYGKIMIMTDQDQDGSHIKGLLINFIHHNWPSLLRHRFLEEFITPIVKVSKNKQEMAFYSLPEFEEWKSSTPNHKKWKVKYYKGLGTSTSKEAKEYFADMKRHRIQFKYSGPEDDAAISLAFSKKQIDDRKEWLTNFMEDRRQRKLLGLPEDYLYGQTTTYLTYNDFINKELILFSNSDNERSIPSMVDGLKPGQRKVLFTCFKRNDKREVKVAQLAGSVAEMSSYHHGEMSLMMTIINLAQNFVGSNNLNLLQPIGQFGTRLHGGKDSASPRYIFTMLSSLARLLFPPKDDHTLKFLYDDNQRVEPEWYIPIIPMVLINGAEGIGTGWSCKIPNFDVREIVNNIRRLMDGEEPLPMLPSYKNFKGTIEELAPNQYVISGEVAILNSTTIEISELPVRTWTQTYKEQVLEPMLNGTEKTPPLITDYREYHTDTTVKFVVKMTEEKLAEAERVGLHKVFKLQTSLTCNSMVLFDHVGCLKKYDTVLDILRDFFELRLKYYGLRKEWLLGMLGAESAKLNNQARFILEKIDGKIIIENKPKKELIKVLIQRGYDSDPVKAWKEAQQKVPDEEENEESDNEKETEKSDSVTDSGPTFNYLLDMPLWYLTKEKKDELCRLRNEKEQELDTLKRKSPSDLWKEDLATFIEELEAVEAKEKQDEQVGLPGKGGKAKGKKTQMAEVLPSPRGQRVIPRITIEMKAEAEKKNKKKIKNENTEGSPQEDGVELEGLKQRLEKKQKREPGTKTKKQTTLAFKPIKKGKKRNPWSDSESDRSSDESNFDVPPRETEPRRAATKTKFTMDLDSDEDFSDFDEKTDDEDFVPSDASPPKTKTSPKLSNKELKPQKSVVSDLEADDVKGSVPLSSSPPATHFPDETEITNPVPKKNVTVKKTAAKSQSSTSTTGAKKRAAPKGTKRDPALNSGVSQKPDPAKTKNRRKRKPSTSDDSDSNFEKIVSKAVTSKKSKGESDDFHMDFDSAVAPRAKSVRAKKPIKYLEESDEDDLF
Raf-1, sequence (P04049 whole entry, species assumed): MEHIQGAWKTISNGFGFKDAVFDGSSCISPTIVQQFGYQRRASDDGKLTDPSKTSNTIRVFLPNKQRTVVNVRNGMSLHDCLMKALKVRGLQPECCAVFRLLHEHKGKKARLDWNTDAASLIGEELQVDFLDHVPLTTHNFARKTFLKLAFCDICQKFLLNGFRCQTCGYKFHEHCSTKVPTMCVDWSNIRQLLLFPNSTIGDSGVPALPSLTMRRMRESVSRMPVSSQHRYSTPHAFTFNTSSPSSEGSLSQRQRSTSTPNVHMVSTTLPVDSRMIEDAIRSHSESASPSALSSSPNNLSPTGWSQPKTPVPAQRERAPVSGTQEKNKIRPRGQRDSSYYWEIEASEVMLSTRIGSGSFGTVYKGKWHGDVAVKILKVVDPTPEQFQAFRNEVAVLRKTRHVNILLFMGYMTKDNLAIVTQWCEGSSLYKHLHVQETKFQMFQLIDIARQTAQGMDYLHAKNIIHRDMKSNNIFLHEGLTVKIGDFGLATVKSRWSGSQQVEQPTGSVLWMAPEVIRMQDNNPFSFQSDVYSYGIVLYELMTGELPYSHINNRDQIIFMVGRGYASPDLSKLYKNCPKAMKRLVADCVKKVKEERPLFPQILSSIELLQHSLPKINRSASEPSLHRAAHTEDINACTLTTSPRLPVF

inhibition at 10 µM (HER2)	inhibition at 10 µM (MET)	inhibition at 10 µM (PDK1)	inhibition at 10 µM (ABL)	inhibition at 10 µM (Flt-1)	inhibition at 10 µM (Tek)	inhibition at 10 µM (HER1)	inhibition at 10 µM (PKB)	inhibition at 10 µM (KIT)	inhibition at 10 µM (Flt-4)	inhibition at 10 µM (KDR)	inhibition at 10 µM (IGF)	inhibition at 10 µM (Raf-1)	inhibition at 10 µM (human topoisomerase II α)	SMILES	other results
65 to 80%	≥ 80%	≥ 80%	≥ 80%	65 to 80%	≥ 80%	65 to 80%	50 to 65%	≥ 80%	≥ 80%	≥ 80%	≥ 80%	65 to 80%	–	CC(C)(C)Nc1nc(Nc2ccc3ncsc3c2)nc2[nH]cnc12 [Example 14, N*2*-Benzothiazol-6-yl-N*6*-tert-butyl-9H-purine-2,6-diamine]	FGFR kinase inh. (FGFR): ++ (<80% ≧ 65%)
< 50%	< 50%	< 50%	50 to 65%	< 50%	65 to 80%	< 50%	< 50%	< 50%	< 50%	50 to 65%	< 50%	< 50%	≥ 80%	CCc1nc2c(NC(C)(C)C)nc(Nc3ccc4ncsc4c3)nc2[nH]1 [Example 27, N*2*-Benzothiazol-6-yl-N*6*-tert-butyl-8-ethyl-9H-purine-2,6-diamine]	IC50 (human topoisomerase II α): 600 nM
–	–	–	–	–	–	–	–	–	–	–	–	–	< 50%	c1ccc(C(Nc2nc(Nc3ccc4ncccc4c3)nc3[nH]cnc23)c2ccccc2)cc1 [Example 13, N*6*-Benzhydryl-N*2*-quinolin-6-yl-9H-purine-2,6-diamine]	–
–	–	–	–	–	–	–	–	–	–	–	–	–	< 50%	c1ccc(N2CCN(c3nc(Nc4ccc5nsnc5c4)nc4[nH]cnc34)CC2)nc1 [Example 62, Benzo[1,2,5]thiadiazol-5-yl-[6-(4-pyridin-2-yl-piperazin-1-yl)-9H-purin-2-yl]-amine]	–
–	–	–	–	–	–	–	–	–	–	–	–	–	< 50%	C=CCc1nc2c(NC(C)(C)C)nc(Nc3ccc4ccccc4c3)nc2[nH]1 [Example 71, 8-Allyl-N*6*-tert-butyl-N*2*-naphthalen-2-yl-9H-purine-2,6-diamine]	–

More lines, now with the values behind:

SMILES	inhibition at 10 µM (HER2)	inhibition at 10 µM (MET)	inhibition at 10 µM (PDK1)	inhibition at 10 µM (ABL)	inhibition at 10 µM (Flt-1)	inhibition at 10 µM (Tek)	inhibition at 10 µM (HER1)	inhibition at 10 µM (PKB)	inhibition at 10 µM (KIT)	inhibition at 10 µM (Flt-4)	inhibition at 10 µM (KDR)	inhibition at 10 µM (IGF)	inhibition at 10 µM (Raf-1)	inhibition at 10 µM (human topoisomerase II α)	other results
Cc1nc2c(NC(C)(C)C)nc(Nc3ccc4ncsc4c3)nc2[nH]1 [Example 25, N*2*-Benzothiazol-6-yl-N*6*-tert-butyl-8-methyl-9H-purine-2,6-diamine]	< 50%	< 50%	< 50%	65 to 80%	< 50%	< 50%	< 50%	< 50%	< 50%	< 50%	50 to 65%	< 50%	< 50%	65 to 80%	IC50 (human topoisomerase II α): 2100 nM; PKA kinase inh. (PKA): + (<65% ≧ 50%)
C=C(C=Cc1nc(OCCN2CCOCC2)sc1C)Nc1nc(NC(C)(C)C)c2nc(C3CC3)[nH]c2n1 [Example 39, N*6*-tert-Butyl-8-cyclopropyl-N*2*-{1-methylene-3-[5-methyl-2-(2-morpholin-4-yl-ethoxy)-thiazol-4-yl]-allyl}-9H-purine-2,6-diamine]	–	–	–	–	–	–	–	–	–	–	–	–	–	65 to 80%	–
CC(C)(CO)Nc1nc(Nc2ccc3ncsc3c2)nc2[nH]cnc12 [Example 68, 2-[2-(Benzothiazol-6-ylamino)-9H-purin-6-ylamino]-2-methyl-propan-1-ol]	–	–	–	–	–	–	–	–	–	–	–	–	–	< 50%	–
CC(C)(C)Nc1nc(Nc2ccc3ncsc3c2)nc2[nH]cnc12 [Example 65, N*2*-Benzothiazol-6-yl-N*6*-tert-butyl-9H-purine-2,6-diamine]	–	–	–	–	–	–	–	–	–	–	–	–	–	50 to 65%	–
